# Test results: PubChem BioAssay (NCI)
#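 Values below derive from 48-hour exposures of cells grown in 96-well plates, with endpoints linearly interpolated between the two concentrations bracketing the appropriate inhibition level. GI50 marks 50% less growth. TGI: concentration producing complete growth inhibition.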
# Legend:
# Assay in all cases: NCI tumour cell line growth inhibition, 48 h
# DU-145 prostate = tested on: DU-145 prostate
# EKVX NSCLC = tested on: EKVX NSCLC
# HOP-92 NSCLC = tested on: HOP-92 NSCLC
# HT29 colon = tested on: HT29 colon
# M14 melanoma = tested on: M14 melanoma
# MCF7 breast = tested on: MCF7 breast
# NCI-H460 lung = tested on: NCI-H460 lung
# SK-MEL-28 melanoma = tested on: SK-MEL-28 melanoma
# U251 CNS = tested on: U251 CNS
# SNB-75 CNS = tested on: SNB-75 CNS
SMILES,TGI (DU-145 prostate) [µM],TGI (EKVX NSCLC) [µM],TGI (HOP-92 NSCLC) [µM],TGI (HT29 colon) [µM],TGI (M14 melanoma) [µM],TGI (MCF7 breast) [µM],TGI (NCI-H460 lung) [µM],TGI (SK-MEL-28 melanoma) [µM],TGI (U251 CNS) [µM],TGI (SNB-75 CNS) [µM],GI50 (DU-145 prostate) [µM],GI50 (EKVX NSCLC) [µM],GI50 (HOP-92 NSCLC) [nM],GI50 (HT29 colon) [nM],GI50 (M14 melanoma) [nM],GI50 (MCF7 breast) [nM],GI50 (NCI-H460 lung) [nM],GI50 (SK-MEL-28 melanoma) [µM],GI50 (SNB-75 CNS) [µM],GI50 (U251 CNS) [nM]
CC[C@H]1C=CCC[C@@]2(C[C@@H]3CC[C@@H]4[C@H](C(=O)OCCCCCCCCCCCCCCCC(=O)O)[C@]5(CCC[C@@H](C)O5)NC(=[N+]34)N2)O1,8,10.5,0.615,5.61,0.212,4.95,1.12,5.3,0.903,–,–,–,–,–,–,–,–,–,–,–
COc1cccc(N=Cc2cc3cc(Br)ccc3nc2Cl)c1,> 50,> 50,> 50,> 50,> 50,–,> 50,> 50,–,> 50,–,–,–,–,–,–,–,–,–,–
CCCc1[nH]c(SCCCCCCCCSc2nc(-c3ccc(F)cc3)c(CCC)[nH]2)nc1-c1ccc(F)cc1,–,52.5,29.6,> 100,> 100,–,> 100,> 100,> 100,8.5,–,–,–,–,–,–,–,–,–,–
COc1cc(/C=C/C(=O)c2ccc(NS(=O)(=O)c3cc([N+](=O)[O-])ccc3C)cc2)cc(OC)c1OC,10.2,17,11.5,14.4,15.3,9.72,–,25,13.7,14.2,–,–,–,–,–,–,–,–,–,–
CC(=O)Nc1cc([As](=O)(O)O)ccc1O,> 100,> 100,> 100,> 100,> 100,> 100,> 100,> 100,> 100,> 100,–,–,–,–,–,–,–,–,–,–
CNC(=O)OC(C)CN1c2ccccc2Sc2ccc(Cl)cc21 (centres undefined),> 10,> 10,–,> 10,> 10,> 10,> 10,> 10,> 10,> 10,–,–,–,–,–,–,–,–,–,–
CCOC(=O)CSc1nc(N)c2c(-c3ccc(OC)c(OC)c3)c3c(nc2n1)CCCC3,> 100,> 100,–,> 100,> 100,> 100,> 100,> 100,> 100,32.6,–,–,–,–,–,–,–,–,–,–
CCS(=O)(=O)Nc1ccc(Nc2c3ccccc3nc3ccccc23)c(OC)c1,–,–,5.35,6.56,–,6.15,1.19,15.4,2.43,3.01,–,–,–,–,–,–,–,–,–,–
COc1ccc2nc(N/N=C/C(C)=N/Nc3cc(C)c4cc(OC)ccc4n3)cc(C)c2c1,34.8,40.2,> 89.9,28.7,80.2,29.8,32.5,74.5,31.6,47.7,–,–,–,–,–,–,–,–,–,–
CCOC(=O)N(Cc1cccs1)c1cc(OC)c(OC)c(OC)c1,> 100,> 100,–,> 100,> 100,> 100,> 100,> 100,> 100,> 100,–,–,–,–,–,–,–,–,–,–
COc1ccc2nc(-c3ccc(-c4noc(-c5cc(OC)c(OC)c(OC)c5)n4)cc3)[nH]c2c1,28.3,84.9,33.5,15.2,22.7,22.1,22.5,27,4.88,27.4,9.48,26.2,14300,2700,5470,1080,4600,9.59,12.5,1680
CC#CC#C/C=C1/O[C@]2(CCC(OC(C)=O)CO2)[C@@H]2O[C@H]12 (some centres undefined),> 100,77.5,92.9,96.1,67.6,> 100,41.8,–,39.1,> 100,–,–,–,–,–,–,–,–,–,–
Cn1c(=S)[nH]c2sc3c(c2c1=O)CCSC3,57.1,85.4,> 100,> 100,> 100,> 100,> 100,–,> 100,> 100,–,–,–,–,–,–,–,–,–,–
COc1cc(C2C(C(=O)O)=C(CO)Oc3cc4c(cc32)OCO4)cc(OC)c1O (centres undefined),–,> 100,> 100,> 100,> 100,–,> 100,> 100,> 100,> 100,–,–,–,–,–,–,–,–,–,–
CN1CC[C@@]2(c3cccc(O)c3)CC(=O)/C(=C/c3ccccc3)[C@H]1C2,29.3,28.7,31,13.5,30.4,10.3,18.7,29,11.1,7.09,–,–,–,–,–,–,–,–,–,–
N=c1c2c(C(N)=O)cn(C3OC(CO)C(O)C3O)c2ncn1O (centres undefined),1.36,6.67,> 100,9.64,0.506,–,> 20.4,2.3,3.14,4.85,–,–,–,–,–,–,–,–,–,–
COc1ccc(/C=C2\C(=O)N(C3OC(COC(C)=O)C(OC(C)=O)C(OC(C)=O)C3OC(C)=O)c3ccccc3N=C2N)cc1 (centres undefined),87.6,> 100,> 100,38,71.8,> 100,75.8,72.2,> 100,54,–,–,–,–,–,–,–,–,–,–
COc1cc(C=C2C(C)=NN(c3cccc(Cl)c3)C23SCC(=O)N3c2nc3ccccc3s2)ccc1O (centres undefined),> 100,> 100,45.4,> 100,> 100,> 100,> 100,> 100,41.4,–,–,–,–,–,–,–,–,–,–,–
CCN(CC)CC(C)Nc1ccc([N+](=O)[O-])c2sc3ccccc3c(=O)c12 (centres undefined),9.79,23.4,–,> 33.2,4.03,2.36,2.14,4.56,10.7,17.2,1.49,2.79,1390,2580,1680,452,401,1.95,3.64,1460
O=C(CCCCCCC(=O)Nc1ccc(N(CCCl)CCCl)cc1)NO,19.3,37.9,5.47,12.7,10.7,24.3,12.9,16.3,–,10.1,2.72,11.5,1190,1560,2430,1480,598,3.35,1.35,–
ONc1ncnc2nc[nH]c12,–,–,> 100,> 100,> 100,–,> 100,> 100,> 100,> 100,–,–,–,–,–,–,–,–,–,–
Cc1nc(N)nc(N)c1-c1ccc(Cl)c(Cl)c1,> 100,> 100,79.7,> 100,> 100,> 100,> 92.1,47.1,> 100,> 76.4,–,–,–,–,–,–,–,–,–,–
O=S(=O)(O)c1ccc2cccc(N=Nc3c(O)ccc4ccccc34)c2c1,> 100,> 100,> 100,–,> 100,> 100,> 100,–,> 100,> 100,–,–,–,–,–,–,–,–,–,–
Cc1cccc2nc3c(C(=O)NCCN(C)C)cccc3cc12,–,7.06,3.99,4.54,–,9.44,4.18,3.62,8.63,6.75,–,–,–,–,–,–,–,–,–,–
CC1SC(c2ccccc2)N(CCc2cccs2)C1=O (centres undefined),19.9,12.7,5.59,15.2,–,15.2,14.7,17.9,14.5,17.8,7.08,2.77,1270,4030,–,3360,3550,4.96,3.01,3950
O=C(N/N=C(/c1ccccc1)C(F)(F)F)c1ccncc1,> 100,–,> 100,> 100,> 100,> 100,> 100,> 100,> 100,> 100,–,–,–,–,–,–,–,–,–,–
